The data set can be described thus: photoluminescence quantum yield (fraction); solvent given as SMILES.

Where “and” joins values, the source holds several entries; their conditions need not be identical. Identical values can stand only once.

This is an account of results in the Deep4Chem optical property database.

On to `O=C1NC(=O)c2ccc3c4ccc5c6c(ccc(c7ccc1c2c73)c64)C(=O)N(c1ccc(O)cc1)C5=O`, for which, where the note is “in CN(C)C=O”, the photoluminescence quantum yield amounted to 0.15.

Compound `CCCCCCOc1cc(N(CC)CC)ccc1/C=C/C(=C(C#N)C#N)c1ccc(N(c2ccccc2)c2ccccc2)cc1` displayed a photoluminescence quantum yield (in ClCCl) of 0.178.

As for `O=S(=O)(c1cccc(N2c3ccccc3Oc3ccccc32)c1)c1cccc(N2c3ccccc3Oc3ccccc32)c1`, the photoluminescence quantum yield (in CCCCC(CC)n1c2ccc(-n3c4ccccc4c4ccccc43)cc2c2cc(-n3c4ccccc4c4ccccc43)ccc21) was determined as 0.208 and the photoluminescence quantum yield (in c1cc(-n2c3ccccc3c3ccccc32)cc(-n2c3ccccc3c3ccccc32)c1) was 0.321.

Consider `Cc1c(C)n2c(COC(=O)c3ccc(F)cc3)c(C)c(=O)n2c1=O`, for which the photoluminescence quantum yield (in CCO) was found to be 0.631.

`CC1=CC(C)=[N+]2C1=C(c1ccc(I)cc1)c1c(C)cc(C)n1[B-]2(F)F`: for the setting “in ClC(Cl)Cl”, the photoluminescence quantum yield turned out to be 0.57.

Turning to `CCCCCCCc1ccc(C2=[N+]3C(=C4c5cc(OCC(CC)CC)c(-c6ccc(CCCCCCC)o6)n5[B-](F)(F)[n+]5nnn(c54)[B-]3(F)F)C=C2OCC(CC)CC)o1`, the photoluminescence quantum yield by setting is: (in C1CCOC1) 0.04; (in ClCCl) 0.02.

`CCCCCCCCCCCCN1C(=O)c2c(c3ccc4cc(-c5ccc(Cl)cc5)c(OC)cc4c3c3c2ccc2cc(-c4ccc(Cl)cc4)c(OC)cc23)C1=O`: the photoluminescence quantum yield (in ClCCl) was determined as 0.144.

The compound `CCCCNC(=O)c1sc(-c2ccc(-c3cc(-c4ccc(C(C)(C)C)cc4)c(C(=O)NCCCC)s3)s2)cc1-c1ccc(C(C)(C)C)cc1` gave a photoluminescence quantum yield (in ClCCl) of 0.32.

In the case of `C(=C(c1ccccc1)c1ccccc1)c1ccc(C=C(c2ccccc2)c2ccccc2)cc1`, the photoluminescence quantum yield (in C1CCOC1) stood at 0.017.

Take `CC1(C)CC(=O)C2=C(C1)Oc1ccc3ccc(O)cc3c1C2c1ccccn1` (stereo not drawn): the photoluminescence quantum yield by setting is: (in C1CCOC1) 0.0027; (in C1COCCO1) 0.0021; (in CC#N) 0.0037; (in CCCCCCC) 0.0082; (in CCO) 0.0035; (in CO) 0.0024. The compound also showed a photoluminescence quantum yield (in O) of 0.2.

In the case of `C1=C2c3cc4ccccc4cc3C3=[N+]2[B-]2(Oc4ccccc43)Oc3ccccc3-c3c4cc5ccccc5cc4c1n32` (stereo not drawn), the photoluminescence quantum yield (in C1CCOC1) came out at 0.013.

Regarding `Cc1cc(C)c(C2=C3C=C(c4ccccc4)C(c4ccccc4)=[N+]3[B-](F)(F)n3c2cc(-c2ccccc2)c3-c2ccccc2)c(C)c1`, the photoluminescence quantum yield (in C1CCCCC1) came out at 0.94; the photoluminescence quantum yield (in C1CCOC1) came out at 0.9; the photoluminescence quantum yield (in CC#N) was 0.87; the photoluminescence quantum yield (in Cc1ccccc1) was 0.75; the photoluminescence quantum yield (in ClCCl) amounted to 0.74.

`COc1cc2c(cc1OC)C1=C[C@H](c3ccccc3)C3(C(C#N)=C(C#N)N1CC2)c1cc(Br)ccc1-c1ccc(Br)cc13` gave a photoluminescence quantum yield (in ClCCl) of 0.00059.

With `CCN(CC)c1ccc(-c2cc3c(s2)c(C(=O)OC)cc(=O)n3C)cc1`, the photoluminescence quantum yield stood at 0.97 (in C1CCOC1); 0.08 (in CC#N); 0.04 (in CCO); 0.16 (in CN(C)C=O); 0.1 (in CS(C)=O); 0.98 (in Cc1ccccc1). This compound also registered a photoluminescence quantum yield (in ClC(Cl)Cl) of 0.99 and a photoluminescence quantum yield (in ClCCl) of 0.91.

Take `C(#Cc1cc2ccc3cccc4ccc(c1)c2c34)c1ccccc1`: for the setting “in Cc1ccccc1”, the photoluminescence quantum yield was 0.44.

Compound `C(S/C=C/c1ccc(/C=C/SC=C2CCCC2)cc1)=C1CCCC1` yielded a photoluminescence quantum yield (in ClCCl) of 0.021.

For the compound `c1ccc(C2=C(c3ccccn3)[Si](c3ccccc3)(c3ccccc3)c3ccccc32)cc1`, under “in ClCCl”, the photoluminescence quantum yield worked out at 0.004.

For the compound `CC(=O)c1ccc(-c2nc3ccc(N(C)C)c(Br)c3s2)cc1`, the photoluminescence quantum yield reads like this: (in C1CCCCC1) 0.11; (in CC#N) 0.54; (in CO) 0.046; (in ClC(Cl)Cl) 0.82.

Turning to `C/C=C/C=C/C1=NC(=C\c2ccc([O-])cc2)/C(=O)N1C`, the photoluminescence quantum yield (in O) worked out at 0.0008.

Consider `CCCCCCN(CCCCCC)c1ccc(C#Cc2ccc(C#N)cc2)cc1`, for which the photoluminescence quantum yield reads like this: (in CC#N) 0.005; (in CO) 0.015; (in ClCCl) 0.37.

`c1ccc(/C(=C(\c2ccccc2)c2cc(-c3ccccc3)ccc2-c2ccccc2)c2cc(-c3ccccc3)ccc2-c2ccccc2)cc1`: the photoluminescence quantum yield (in C1CCOC1) is 0.3.

Take `COc1ccc2c3c(c4ccc(OC)cc4c2c1)C1(c2ccccc2-c2ccccc21)c1ccccc1-3`: the photoluminescence quantum yield (in C1CCCCC1) came to 0.21.

The compound `Oc1cc2ccc3cc(O)cc4ccc(c1)c2c34` displayed a photoluminescence quantum yield (in CO) of 0.93.

Turning to `CC(C)(C)c1ccc2cc3c4cccc5cccc(c6cc(C(C)(C)C)cc(c2c1)c63)c54`, the photoluminescence quantum yield (in CC1CCCCC1) came to 0.74.

Where the note is “in ClCCl”, `O=P1(c2ccccc2)c2cccc3c4ccccc4c4ccc1n4c23` (stereo not drawn) gave a photoluminescence quantum yield of 0.25.

Take `COC(=O)C(NC(=O)OC(C)(C)C)c1ccc2oc(-c3ccc(N(C)C)cc3OC)nc2c1` (stereo not drawn): the photoluminescence quantum yield (in CC1CCCCC1) is 0.44, the photoluminescence quantum yield (in CC#N) is 0.88 and the photoluminescence quantum yield (in CO) was found to be 0.97.

For `CCN(CC)c1ccc2cc(-c3cc(SC)c(C#N)c(=O)o3)c(=O)oc2c1`, the photoluminescence quantum yield runs as follows: (in C1CCOC1) 0.72; (in CC#N) 0.56; (in CC(C)=O) 0.67; (in CCOC(C)=O) 0.8; (in CN(C)C=O) 0.4; (in CO) 0.55. The photoluminescence quantum yield runs as follows: (in CS(C)=O) 0.55; (in Cc1ccccc1) 0.72; (in ClC(Cl)Cl) 0.66; (in ClCCl) 0.81.

Take `CC(C)(C)c1ccc(C#Cc2cc(C#Cc3ccc(C(C)(C)C)cc3)c(C#Cc3ccc(C(C)(C)C)cc3)c(C#Cc3ccc(C(C)(C)C)cc3)c2C#Cc2ccc(C(C)(C)C)cc2)cc1`: the photoluminescence quantum yield (in ClCCl) turned out to be 0.41.

`COC(=O)c1ccc(/C=C2\N=C(c3ccc(OC)c(OC)c3)OC2=O)cc1`: the photoluminescence quantum yield (in C1COCCO1) amounted to 0.348.

With `CCCCOC(=O)c1ccccc1-c1c2ccc(=[N+](CC)CC)cc-2oc2cc(N(CC)CC)ccc12`, the photoluminescence quantum yield by setting is: (in CC#N) 0.36; (in CCO) 0.71; (in CN(C)C=O) 0.35; (in O) 0.3.

Where the note is “in O”, `Cc1ccccc1C1=C2C=CC(=[N+](C)C)C=C2[Si](C)(C)c2cc(N(C)C)ccc21` showed a photoluminescence quantum yield of 0.31.

Turning to `COC(=O)C(NC(=O)OC(C)(C)C)c1ccc2oc(-c3ccc(F)cc3)nc2c1` (stereo not drawn), the photoluminescence quantum yield reads like this: (in CC1CCCCC1) 0.49; (in CC#N) 0.46; (in CO) 0.48.

Compound `CCCCN(CCCC)c1ccc(C#Cc2cc(C#Cc3ccc(C#N)cc3)c(C#Cc3ccc(N(CCCC)CCCC)cc3)cc2C#Cc2ccc(C#N)cc2)cc1` yielded a photoluminescence quantum yield (in ClCCl) of 0.25.

As to `CCOCCOCCOC(=O)/C=C/C1=CC2=C(c3c(C)cc(C)cc3C)c3cc(/C=C/C(=O)OCCOCCOCC)cn3[B-](F)(F)[N+]2=C1`, the photoluminescence quantum yield (in ClCCl) amounted to 0.34.

With `COc1ccc2c(c1)-c1ccccc1C2=O`, the photoluminescence quantum yield by setting is: (in C1CCCCC1) 0.0007; (in CC#N) 0.034; (in CCO) 0.002.

As to `C=C(C)C(CN1C(=O)c2cccc3c2c(cc2oc(C)nc23)C1=O)OO` (stereo not drawn), where the note is “in CCO”, the photoluminescence quantum yield is 0.096.

For the compound `CCC1=C(C2=C(C3=C(CC)S(=O)(=O)c4cc(-c5ccc(C)s5)ccc43)C(F)(F)C(F)(F)C2(F)F)c2ccc(-c3ccc(C)s3)cc2S1(=O)=O`, the photoluminescence quantum yield (in C1COCCO1) came to 0.

In turn, `Cc1cc(C)c(B(c2ccc(-c3ccc(-c4nc5c6ccccc6c6ccccc6c5[nH]4)cc3)cc2)c2c(C)cc(C)cc2C)c(C)c1` showed a photoluminescence quantum yield (in C1CCOC1) of 0.74; a photoluminescence quantum yield (in CC(C)=O) of 0.56; a photoluminescence quantum yield (in CS(C)=O) of 0.49; a photoluminescence quantum yield (in Cc1ccccc1) of 0.68; a photoluminescence quantum yield (in ClCCl) of 0.59.

Turning to `COc1ccc(-c2cc(C)nc(-c3ccc(-n4c5ccccc5c5ccccc54)cc3)n2)cc1`, the photoluminescence quantum yield is, setting by setting: (in C1CCOC1) 0.47; (in CN(C)C=O) 0.66; (in Cc1ccccc1) 0.34; (in ClC(Cl)Cl) 0.68.

Where the note is “in Cc1ccccc1”, `CN(C)c1ccc(C#Cc2cc3ccc4cc(C#Cc5ccc(N(C)C)cc5)cc5ccc(c2)c3c45)cc1` registered a photoluminescence quantum yield of 0.39.

`CCN(CC)c1ccc(C(=C(c2ccccc2)c2ccc(B(c3c(C)cc(C)cc3C)c3c(C)cc(C)cc3C)cc2)c2ccc(N(CC)CC)cc2)cc1` showed a photoluminescence quantum yield (in C1CCOC1) of 0.19.

For the setting “in O=P(c1ccccc1)(c1ccccc1)c1ccccc1Oc1ccccc1P(=O)(c1ccccc1)c1ccccc1”, `N#Cc1cccc(C#N)c1-c1ccc(N2c3ccccc3C3(c4ccccc42)c2ccccc2N(c2ccc(-c4c(C#N)cccc4C#N)cc2)c2ccccc23)cc1` came in with a photoluminescence quantum yield of 0.65.

In the case of `CC1(C)C(/C=C/C2=C(Cl)C(=C/C=C3/N(CCCCCC(=O)O)c4ccccc4C3(C)C)/CCC2)=[N+](CCCCCC(=O)O)c2ccccc21`, the photoluminescence quantum yield (in CCO) was found to be 0.119.

`COc1cccc(-c2nc3sc4ccccc4c3s2)c1` showed a photoluminescence quantum yield (in CS(C)=O) of 0.62.

Turning to `CCCCCCc1cc2c(s1)-c1sc(CCCCCC)cc1P(c1ccccc1)(c1ccccc1)=[O+][B-]2(c1c(C)cc(C)cc1C)c1c(C)cc(C)cc1C`, the photoluminescence quantum yield (in C1CCOC1) came to 0.06.

Under “in C1CCCCC1”, `Oc1ccc2ccccc2c1` gave a photoluminescence quantum yield of 0.51.

For `CC1=CC(C)=[N+]2C1=C(c1ccc(-c3c4ccccc4c(-c4ccccc4)c4ccccc34)cc1)c1c(C)cc(C)n1[B-]2(F)F`, the photoluminescence quantum yield is, setting by setting: (in CC#N) 0.11; (in CCCCCC) 0.7; (in CCO) 0.37; (in CN(C)C=O) 0.13; (in Cc1ccccc1) 0.65; (in ClCCl) 0.57.

For `Cc1ccc(N(C)C)cc1C1=C2C=CC(=[N+](C)C)C=C2[Si](C)(C)c2cc(N(C)C)ccc21`, the photoluminescence quantum yield (in O) amounted to 0.001.

Turning to `COc1ccccc1C1=[N+]2C(=C(c3ccc(I)cc3)c3ccc(-c4ccccc4OC)n3[B-]2(F)F)C=C1`, where the note is “in ClC(Cl)Cl”, the photoluminescence quantum yield is 0.08 and 0.07.
